Measured values published in ChEMBL document CHEMBL5715937, “In vitro activity of Bcr-Abl inhibitors AMN107 and BMS-354825 against clinically relevant imatinib-resistant Abl kinase domain mutants” (Cancer Res, 2005).
Blank lines part the entries; values can stand above or below the molecule they belong to. The source made the active and inactive calls. The rule behind the calls is not given here.

How the values were obtained:
[1] = Inhibition of BCR-ABL F359V mutant (unknown origin) expressed in mouse BaF3 cells assessed as inhibition of cell growth incubated for 72 hrs by […] CellTiter96 viability analysis; settings: for IC50: BaF3, 72 h
[2] = Inhibition of BCR-ABL E255K mutant (unknown origin) expressed in mouse BaF3 cells assessed as inhibition of cell growth incubated for 72 hrs by […] CellTiter96 viability analysis; settings: for IC50: BaF3, 72 h
cells [3] = settings: Mus musculus, BaF3, 3 h
[4] = Inhibition of BCR-ABL H396R mutant (unknown origin) expressed in mouse BaF3 cells assessed as inhibition of cell growth incubated for 72 hrs by […] CellTiter96 viability analysis; settings: for IC50: BaF3, 72 h
cells [5] = settings: Mus musculus, BaF3, 3 h; remark: listed apart in the source
cells [6] = settings: Mus musculus, BaF3, 3 h; remark: listed apart in the source
cells [7] = settings: Mus musculus, BaF3, 3 h; remark: listed apart in the source
cells [8] = settings: Mus musculus, BaF3, 72 h
[9] = Cytotoxicity against mouse BaF3 cells assessed as reduction in cell proliferation incubated for 72 hrs by […] CellTiter96 viability analysis; assay type: toxicity
[10] = Inhibition of BCR-ABL Y253F mutant (unknown origin) expressed in mouse BaF3 cells assessed as inhibition of cell growth incubated for 72 hrs by […] CellTiter96 viability analysis; settings: for IC50: BaF3, 72 h
[11] = Inhibition of BCR-ABL Y253H mutant (unknown origin) expressed in mouse BaF3 cells assessed as inhibition of cell growth incubated for 72 hrs by […] CellTiter96 viability analysis; settings: for IC50: BaF3, 72 h
cells [12] = settings: Mus musculus, BaF3, 3 h; remark: listed apart in the source
[13] = Inhibition of BCR-ABL Q252H mutant (unknown origin) expressed in mouse BaF3 cells assessed as inhibition of cell growth incubated for 72 hrs by […] CellTiter96 viability analysis; settings: for IC50: BaF3, 72 h
cells [14] = settings: Mus musculus, BaF3, 3 h; remark: listed apart in the source
cells [15] = settings: Mus musculus, BaF3, 3 h; remark: listed apart in the source
[16] = Inhibition of BCR-ABL F311L mutant (unknown origin) expressed in mouse BaF3 cells assessed as inhibition of cell growth incubated for 72 hrs by […] CellTiter96 viability analysis; settings: for IC50: BaF3, 72 h
[17] = Inhibition of BCR-ABL V379l mutant (unknown origin) expressed in mouse BaF3 cells assessed as inhibition of cell growth incubated for 72 hrs by […] CellTiter96 viability analysis; settings: for IC50: BaF3, 72 h
cells [18] = settings: Mus musculus, BaF3, 3 h; remark: listed apart in the source
cells [19] = settings: Mus musculus, BaF3, 3 h; remark: listed apart in the source
[20] = Inhibition of BCR-ABL L387M mutant (unknown origin) expressed in mouse BaF3 cells assessed as inhibition of cell growth incubated for 72 hrs by […] CellTiter96 viability analysis; settings: for IC50: BaF3, 72 h
[21] = Inhibition of BCR-ABL E255V mutant (unknown origin) expressed in mouse BaF3 cells assessed as inhibition of cell growth incubated for 72 hrs by […] CellTiter96 viability analysis; settings: for IC50: BaF3, 72 h
cells [22] = settings: Mus musculus, BaF3, 3 h; remark: listed apart in the source
[23] = Inhibition of BCR-ABL M351T mutant (unknown origin) expressed in mouse BaF3 cells assessed as inhibition of cell growth incubated for 72 hrs by […] CellTiter96 viability analysis; settings: for IC50: BaF3, 72 h
[24] = Inhibition of BCR-ABL M244V mutant (unknown origin) expressed in mouse BaF3 cells assessed as inhibition of cell growth incubated for 72 hrs by […] CellTiter96 viability analysis; settings: for IC50: BaF3, 72 h
[25] = Inhibition of BCR-ABL H396P mutant (unknown origin) expressed in mouse BaF3 cells assessed as inhibition of cell growth incubated for 72 hrs by […] CellTiter96 viability analysis; settings: for IC50: BaF3, 72 h
[26] = Inhibition of BCR-ABL F317L mutant (unknown origin) expressed in mouse BaF3 cells assessed as inhibition of cell growth incubated for 72 hrs by […] CellTiter96 viability analysis; settings: for IC50: BaF3, 72 h
[27] = Inhibition of BCR-ABL G250E mutant (unknown origin) expressed in mouse BaF3 cells assessed as inhibition of cell growth incubated for 72 hrs by […] CellTiter96 viability analysis; settings: for IC50: BaF3, 72 h
cells [28] = settings: Mus musculus, BaF3, 3 h; remark: listed apart in the source
cells [29] = settings: Mus musculus, BaF3, 3 h; remark: listed apart in the source
[30] = Inhibition of BCR-ABL L387M mutant (unknown origin) expressed in mouse BaF3 cells assessed as inhibition of tyrosine phosphorylation incubated for 3 hrs by immunoblotting analysis; assay type: cell-based; settings: BaF3, 3 h
[31] = Inhibition of BCR-ABL V379l mutant (unknown origin) expressed in mouse BaF3 cells assessed as inhibition of tyrosine phosphorylation incubated for 3 hrs by immunoblotting analysis; assay type: cell-based; settings: BaF3, 3 h
[32] = Inhibition of BCR-ABL H396P mutant (unknown origin) expressed in mouse BaF3 cells assessed as inhibition of tyrosine phosphorylation incubated for 3 hrs by immunoblotting analysis; assay type: cell-based; settings: BaF3, 3 h
[33] = Inhibition of BCR-ABL F311L mutant (unknown origin) expressed in mouse BaF3 cells assessed as inhibition of tyrosine phosphorylation incubated for 3 hrs by immunoblotting analysis; assay type: cell-based; settings: BaF3, 3 h
[34] = Inhibition of BCR-ABL phosphorylation in mouse BaF3 cells incubated for 3 hrs by immunoblotting analysis; assay type: functional, cell-based
BaF3 = test: Induction of apoptosis in mouse BaF3 cells expressing Bcr-Abl T315I mutant at 300 to 1500 nM incubated for 72 hrs by Annexin V-phycoerythrin and 7-amino-actinomycin D staining based PCA instrument analysis relative to control; assay type: functional, cell-based; settings: dose 300-1500 nM
[35] = BaF3, time 72 hrs, condition chronic myelogenous leukemia

- IC50 (cells [3]): > 1000 nM
- IC50 (cells [5]): < 10 nM
- IC50 (cells [6]): < 10 nM
- IC50 (cells [7]): < 10 nM
- IC50 (cells [8]): > 200 nM
- IC50 (cells [12]): 10 nM
- IC50 (cells [14]): 10 nM
- IC50 (cells [15]): < 10 nM
- IC50 (cells [18]): 10 nM
- IC50 (cells [19]): < 10 nM
- IC50 (cells [22]): < 10 nM
- IC50 (cells [28]): < 10 nM
- IC50 (cells [29]): < 10 nM
SMILES: Cc1nc(Nc2ncc(C(=O)Nc3c(C)cccc3Cl)s2)cc(N2CCN(CCO)CC2)n1 [DASATINIB ANHYDROUS]
- IC50 [1]: 2.2 nM
- IC90 [1, 35]: 4.8 nM
- IC50 [2]: 5.6 nM
- IC90 [2, 35]: 12.8 nM
- IC50 [4]: 1.3 nM
- IC90 [4, 35]: 2.7 nM
- IC50 at 72 h [9]: > 200 nM
- IC50 [10]: 1.4 nM
- IC90 [10, 35]: 3 nM
- IC50 [11]: 1.3 nM
- IC90 [11, 35]: 3 nM
- IC50 [13]: 3.4 nM
- IC90 [13, 35]: 11.2 nM
- IC50 [16]: 1.3 nM
- IC90 [16, 35]: 2.8 nM
- IC50 [17]: 0.8 nM
- IC90 [17, 35]: 1.6 nM
- IC50 [20]: 2 nM
- IC90 [20, 35]: 4 nM
- IC50 [21]: 11 nM
- IC90 [21, 35]: 27 nM
- IC50 [23]: 1.1 nM
- IC90 [23, 35]: 3 nM
- IC50 [24]: 1.3 nM
- IC90 [24, 35]: 1.8 nM
- IC50 [25]: 0.6 nM
- IC90 [25, 35]: 1.2 nM
- IC50 [26]: 7.4 nM
- IC90 [26, 35]: 15 nM
- IC50 [27]: 1.8 nM
- IC90 [27, 35]: 3 nM

- IC50 (cells [3]): > 5000 nM
- IC50 (cells [5]): 400 nM
- IC50 (cells [6]): > 5000 nM
- IC50 (cells [7]): 1500 nM
- IC50 [30]: 2700 nM
- IC50 (cells [8]): > 6400 nM
- IC50 [31]: 800 nM
- IC50 [32]: 2700 nM
- IC50 (cells [12]): 1000 nM
- IC50 (cells [14]): 3100 nM
- IC50 [33]: 600 nM
- IC50 [34]: Not Active
- IC50 (cells [15]): > 5000 nM
- IC50 (cells [18]): 5000 nM
- IC50 (cells [19]): 500 nM
- IC50 (cells [22]): 500 nM
- IC50 (cells [28]): 1000 nM
- IC50 (cells [29]): 4200 nM
SMILES: Cc1ccc(NC(=O)c2ccc(CN3CCN(C)CC3)cc2)cc1Nc1nccc(-c2cccnc2)n1 [IMATINIB]
- IC50 [1]: 1820 nM
- IC50 [2]: 5200 nM
- IC50 [4]: 1750 nM
- IC50 at 72 h [9]: > 6400 nM
- IC50 [10]: 3480 nM
- IC50 [11]: > 6400 nM
- IC50 [13]: 1320 nM
- IC50 [16]: 480 nM
- IC50 [17]: 1630 nM
- IC50 [20]: 1000 nM
- IC50 [21]: > 6400 nM
- IC50 [23]: 880 nM
- Activity (BaF3): inactive
- IC50 [24]: 2000 nM
- IC50 [25]: 850 nM
- IC50 [26]: 1050 nM
- IC50 [27]: 1350 nM
